Results taken from patent publication US20200239530A1, “COMPOUNDS AND METHODS OF MODULATING PROTEIN DEGRADATION” (Vividion Therapeutics, Inc., priority 2017, published 2020).

Tests used:
Assay type in all cases: binding
Q8NF64 = biological target: T1, Q8NF64 (Homo sapiens, UniProt Q8NF64); assay: Cysteine liganding, probe competition (Table 2B); settings: one line per cysteine site, read-out: KB02_500 uM_percent_inhibition
T1 construct: 200 μL of lysate containing 5 mg/ml proteome was treated with 2 μL of 100× compound stock; endogenous in cells
From the text: (§1) The following 96-well sample prep protocol was used for sample preparation.

[1] = biological target: T2, cysteine residue illustrated in Table 1A or Table 2A (Homo sapiens, UniProt Q9Y6I7); assay: Competitive cysteine profiling of cell lysate with desthiobiotin iodoacetamide probe (96-well sample prep); settings: UniProt Q9Y6I7; KB02 100 uM
T2 construct: Cells were resuspended in cold PBS on ice and sonicated with a probe sonicator to achieve lysis; endogenous in cells
In short: (§2)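 Competitive profiling: compound and lysate (5 mg/ml protein) incubated 1 h at 25 °C before a 1 h, 25 °C desthiobiotin iodoacetamide probe step. Proteins were acetone-precipitated, reduced, alkylated and trypsinized; streptavidin-captured labelled peptides were eluted for MS analysis.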

Q9ULT6 = biological target: T3, Q9ULT6 (Homo sapiens, UniProt Q9ULT6); assay: Cysteine liganding, probe competition (Table 2B); settings: one line per cysteine site, read-out: KB05_500 uM_percent_inhibition
T3 construct: 200 μL of lysate containing 5 mg/ml proteome was treated with 2 μL of 100× compound stock; endogenous in cells
From the text: as §1

Q9C0D3 = biological target: T4, Q9C0D3 (Homo sapiens, UniProt Q9C0D3); assay: Cysteine liganding, probe competition (Table 2B); settings: one line per cysteine site, read-out: KB05_100 uM_percent_inhibition
T4 construct: endogenous in cells; whole-cell lysate
From the text: as §1

[2] = biological target: T5, cysteine residue illustrated in Table 1A or Table 2A (Homo sapiens, UniProt Q7Z6J8); assay: Competitive cysteine profiling of cell lysate with desthiobiotin iodoacetamide probe (96-well sample prep); settings: UniProt Q7Z6J8; KB05 100 uM
T5 construct: Cells were resuspended in cold PBS on ice and sonicated with a probe sonicator to achieve lysis; endogenous in cells
In short: as §2

[3] = biological target: T6, cysteine residue illustrated in Table 1A or Table 2A (Homo sapiens, UniProt Q86Y01); assay: as above; settings: UniProt Q86Y01; 100 uM
T6 construct: Cells were resuspended in cold PBS on ice and sonicated with a probe sonicator to achieve lysis; endogenous in cells
In short: as §2

[4] = biological target: T7, cysteine residue illustrated in Table 1A or Table 2A (Homo sapiens, UniProt P55774); assay: as above; settings: UniProt P55774
T7 construct: Cells were resuspended in cold PBS on ice and sonicated with a probe sonicator to achieve lysis; endogenous in cells
In short: as §2

[5] = biological target: cysteine residue illustrated in Table 1A or Table 2A (Homo sapiens, UniProt Q13616); assay: as above; design: endogenous in cells; settings: UniProt Q13616; 100 uM
Protocol: In some embodiments, the solution sample (e.g., cell sample, cell lysate sample, or comprising isolated proteins) is incubated with a compound of Formula (I) for analysis of protein-probe interactions. In some instances, the solution sample (e.g., cell sample, cell lysate sample, or comprising isolated proteins) is further incubated in the presence of an additional compound probe prior to addition of the compound of Formula (I). […] In such instances, the solution sample is incubated with a probe and a ligand for competitive protein profiling analysis.
as §1
Cells were resuspended in cold PBS on ice and sonicated with a probe sonicator to achieve lysis. 200 μL of lysate containing 5 mg/ml proteome was treated with 2 μL of 100× compound stock in a 2-mL deep-well plate. The treated lysate was subsequently incubate at 25° C. for 1 hr with shaking at 600 rpm. The treated lysate was further incubated with 2 μL of 10 mM desthiobiotin iodoacetamide probe at 25° C. for 1 hr with shaking at 600 rpm. Next, the lysate was further treat with 20 μL of solution of PBS containing 11 mM MgSO4 and 2.5% Turbonuclease stock and incubated at 25° C. for 20 minutes with shaking at 600 rpm. 1.7 mL ice-cold acetone was added to each well and incubated at −20° C. for 2 hr, followed by max speed (4200 rpm) spin for 45 min. […]

[6] = biological target: T8, cysteine residue illustrated in Table 1A or Table 2A (Homo sapiens, UniProt P10074); assay: as above; settings: UniProt P10074; KB03 100 uM
T8 construct: Cells were resuspended in cold PBS on ice and sonicated with a probe sonicator to achieve lysis; endogenous in cells
In short: as §2

[7] = biological target: T9, cysteine residue illustrated in Table 1A or Table 2A (Homo sapiens, UniProt Q5T4S7); assay: as above; settings: UniProt Q5T4S7; KB03 500 uM
T9 construct: Cells were resuspended in cold PBS on ice and sonicated with a probe sonicator to achieve lysis; endogenous in cells
In short: as §2

[8] = biological target: T10, cysteine residue illustrated in Table 1A or Table 2A (Homo sapiens, UniProt Q9NZJ0); assay: as above; settings: UniProt Q9NZJ0; 500 uM
T10 construct: Cells were resuspended in cold PBS on ice and sonicated with a probe sonicator to achieve lysis; endogenous in cells
In short: as §2

[9] = biological target: T11, cysteine residue illustrated in Table 1A or Table 2A (Homo sapiens, UniProt Q9H0M0); assay: as above; settings: UniProt Q9H0M0; KB03 100 uM
T11 construct: Cells were resuspended in cold PBS on ice and sonicated with a probe sonicator to achieve lysis; endogenous in cells
In short: as §2

[10] = biological target: T12, cysteine residue illustrated in Table 1A or Table 2A (Homo sapiens, UniProt O95159); assay: as above; settings: UniProt O95159; KB03 100 uM
T12 construct: Cells were resuspended in cold PBS on ice and sonicated with a probe sonicator to achieve lysis; endogenous in cells
In short: as §2

T7 sequence (P55774 21-89): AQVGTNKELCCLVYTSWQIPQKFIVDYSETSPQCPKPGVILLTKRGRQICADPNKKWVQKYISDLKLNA
cysteine residue illustrated in Table 1A or Table 2A (Homo sapiens, UniProt Q13616), sequence (Q13616 whole entry): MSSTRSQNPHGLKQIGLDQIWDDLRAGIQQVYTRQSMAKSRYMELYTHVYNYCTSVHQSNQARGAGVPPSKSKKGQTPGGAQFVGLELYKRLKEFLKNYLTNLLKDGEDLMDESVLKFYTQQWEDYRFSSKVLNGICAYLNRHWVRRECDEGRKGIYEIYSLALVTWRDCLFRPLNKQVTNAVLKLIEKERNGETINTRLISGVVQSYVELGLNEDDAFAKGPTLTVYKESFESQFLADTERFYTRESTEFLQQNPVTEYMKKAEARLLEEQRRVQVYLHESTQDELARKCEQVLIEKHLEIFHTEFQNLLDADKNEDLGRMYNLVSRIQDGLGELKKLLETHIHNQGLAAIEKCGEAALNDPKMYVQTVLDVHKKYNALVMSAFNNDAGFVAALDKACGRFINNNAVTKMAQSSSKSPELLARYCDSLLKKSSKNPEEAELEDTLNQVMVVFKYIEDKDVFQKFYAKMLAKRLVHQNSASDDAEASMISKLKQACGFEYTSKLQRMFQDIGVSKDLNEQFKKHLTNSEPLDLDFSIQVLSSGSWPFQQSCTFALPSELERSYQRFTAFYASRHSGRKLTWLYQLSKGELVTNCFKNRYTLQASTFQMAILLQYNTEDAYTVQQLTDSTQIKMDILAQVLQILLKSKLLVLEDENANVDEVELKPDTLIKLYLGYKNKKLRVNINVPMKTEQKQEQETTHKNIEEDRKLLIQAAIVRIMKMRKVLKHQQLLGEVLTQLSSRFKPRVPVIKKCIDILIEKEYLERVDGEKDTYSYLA
T10 sequence (Q9NZJ0 whole entry): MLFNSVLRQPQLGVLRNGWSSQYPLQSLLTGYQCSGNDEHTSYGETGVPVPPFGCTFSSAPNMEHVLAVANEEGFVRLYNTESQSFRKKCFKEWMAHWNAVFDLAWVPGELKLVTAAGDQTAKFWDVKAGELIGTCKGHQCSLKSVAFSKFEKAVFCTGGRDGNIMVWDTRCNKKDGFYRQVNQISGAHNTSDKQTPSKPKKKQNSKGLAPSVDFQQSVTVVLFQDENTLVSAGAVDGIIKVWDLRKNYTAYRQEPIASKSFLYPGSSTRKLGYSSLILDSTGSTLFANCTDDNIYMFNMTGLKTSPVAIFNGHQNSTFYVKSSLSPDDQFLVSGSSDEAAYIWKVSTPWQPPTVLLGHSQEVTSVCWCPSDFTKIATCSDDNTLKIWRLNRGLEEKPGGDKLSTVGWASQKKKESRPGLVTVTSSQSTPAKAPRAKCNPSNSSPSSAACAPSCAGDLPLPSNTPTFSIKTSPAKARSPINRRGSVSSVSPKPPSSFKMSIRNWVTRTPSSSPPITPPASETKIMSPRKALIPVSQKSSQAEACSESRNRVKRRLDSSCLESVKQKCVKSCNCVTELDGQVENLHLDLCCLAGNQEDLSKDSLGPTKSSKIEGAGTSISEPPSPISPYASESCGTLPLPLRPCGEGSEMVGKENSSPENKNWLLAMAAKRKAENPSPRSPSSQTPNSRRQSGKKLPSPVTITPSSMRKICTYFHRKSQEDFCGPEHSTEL
T11 sequence (Q9H0M0 whole entry): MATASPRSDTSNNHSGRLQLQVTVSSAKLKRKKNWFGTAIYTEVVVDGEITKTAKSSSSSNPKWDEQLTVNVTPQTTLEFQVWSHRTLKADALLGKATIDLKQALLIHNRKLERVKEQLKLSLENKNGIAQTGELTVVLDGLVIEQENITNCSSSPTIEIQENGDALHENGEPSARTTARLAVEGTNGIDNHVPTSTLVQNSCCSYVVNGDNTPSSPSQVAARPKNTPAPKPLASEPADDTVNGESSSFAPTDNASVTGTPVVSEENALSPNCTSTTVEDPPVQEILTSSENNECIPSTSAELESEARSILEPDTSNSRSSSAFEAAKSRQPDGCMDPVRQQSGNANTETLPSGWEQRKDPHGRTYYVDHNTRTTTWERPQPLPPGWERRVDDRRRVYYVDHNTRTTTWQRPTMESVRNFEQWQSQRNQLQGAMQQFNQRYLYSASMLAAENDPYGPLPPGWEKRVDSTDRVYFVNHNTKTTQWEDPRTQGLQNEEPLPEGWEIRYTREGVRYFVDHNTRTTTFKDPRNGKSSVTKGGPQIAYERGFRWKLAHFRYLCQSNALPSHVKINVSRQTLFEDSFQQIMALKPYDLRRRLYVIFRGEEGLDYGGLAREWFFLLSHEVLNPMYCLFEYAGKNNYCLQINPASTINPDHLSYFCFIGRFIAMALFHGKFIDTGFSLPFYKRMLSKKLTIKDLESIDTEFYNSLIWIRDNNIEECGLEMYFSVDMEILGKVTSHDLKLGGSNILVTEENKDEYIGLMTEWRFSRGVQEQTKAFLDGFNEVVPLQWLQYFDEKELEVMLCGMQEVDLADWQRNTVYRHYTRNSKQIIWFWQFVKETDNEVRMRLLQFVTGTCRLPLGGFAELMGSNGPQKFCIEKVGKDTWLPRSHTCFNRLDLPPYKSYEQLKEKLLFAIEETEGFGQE
T12 sequence (O95159 whole entry): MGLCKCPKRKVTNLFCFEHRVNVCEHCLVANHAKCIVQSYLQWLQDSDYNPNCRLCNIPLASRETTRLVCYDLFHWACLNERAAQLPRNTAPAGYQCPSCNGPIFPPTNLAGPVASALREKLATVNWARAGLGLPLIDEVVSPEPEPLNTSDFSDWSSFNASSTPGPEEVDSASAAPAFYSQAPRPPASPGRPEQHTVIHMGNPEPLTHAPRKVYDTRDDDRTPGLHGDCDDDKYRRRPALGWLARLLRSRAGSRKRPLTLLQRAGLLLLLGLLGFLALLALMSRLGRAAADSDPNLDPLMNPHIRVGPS
T5 sequence (Q7Z6J8 whole entry): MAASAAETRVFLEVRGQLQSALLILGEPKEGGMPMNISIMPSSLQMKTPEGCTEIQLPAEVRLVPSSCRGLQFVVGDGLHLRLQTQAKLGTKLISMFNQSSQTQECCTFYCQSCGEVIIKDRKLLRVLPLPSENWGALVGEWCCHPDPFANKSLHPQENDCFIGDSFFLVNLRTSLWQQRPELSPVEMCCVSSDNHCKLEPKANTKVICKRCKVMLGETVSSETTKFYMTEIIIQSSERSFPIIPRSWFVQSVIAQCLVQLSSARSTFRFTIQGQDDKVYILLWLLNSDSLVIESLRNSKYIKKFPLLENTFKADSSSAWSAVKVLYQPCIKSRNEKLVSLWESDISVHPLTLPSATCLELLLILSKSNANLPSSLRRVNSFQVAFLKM
T2 sequence (Q9Y6I7 whole entry): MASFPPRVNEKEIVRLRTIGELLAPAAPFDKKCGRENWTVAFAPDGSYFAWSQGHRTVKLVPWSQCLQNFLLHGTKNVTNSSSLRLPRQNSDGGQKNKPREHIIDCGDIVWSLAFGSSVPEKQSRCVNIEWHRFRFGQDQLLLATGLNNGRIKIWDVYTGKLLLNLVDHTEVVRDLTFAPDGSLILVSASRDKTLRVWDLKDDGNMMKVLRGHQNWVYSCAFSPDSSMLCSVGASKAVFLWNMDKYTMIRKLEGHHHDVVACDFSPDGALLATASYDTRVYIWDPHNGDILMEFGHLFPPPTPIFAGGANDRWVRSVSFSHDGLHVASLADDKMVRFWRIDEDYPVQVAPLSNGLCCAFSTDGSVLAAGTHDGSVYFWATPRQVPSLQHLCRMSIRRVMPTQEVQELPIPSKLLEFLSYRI
T6 sequence (Q86Y01 whole entry): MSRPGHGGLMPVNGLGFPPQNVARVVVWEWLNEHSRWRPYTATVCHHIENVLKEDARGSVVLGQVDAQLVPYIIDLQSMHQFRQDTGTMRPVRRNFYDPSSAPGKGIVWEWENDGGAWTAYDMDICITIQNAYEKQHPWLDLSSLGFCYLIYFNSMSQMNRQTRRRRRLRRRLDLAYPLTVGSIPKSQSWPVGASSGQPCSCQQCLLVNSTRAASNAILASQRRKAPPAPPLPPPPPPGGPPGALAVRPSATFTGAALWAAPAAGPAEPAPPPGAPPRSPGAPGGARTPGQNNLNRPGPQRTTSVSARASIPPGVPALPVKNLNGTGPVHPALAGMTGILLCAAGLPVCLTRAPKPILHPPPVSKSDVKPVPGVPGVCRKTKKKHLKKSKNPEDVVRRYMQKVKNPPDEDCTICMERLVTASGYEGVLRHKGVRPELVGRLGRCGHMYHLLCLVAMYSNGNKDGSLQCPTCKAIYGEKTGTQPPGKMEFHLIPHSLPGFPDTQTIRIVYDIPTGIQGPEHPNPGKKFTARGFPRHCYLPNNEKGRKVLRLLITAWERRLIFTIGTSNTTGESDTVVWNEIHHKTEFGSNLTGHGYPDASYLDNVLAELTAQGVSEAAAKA
T4 sequence (Q9C0D3 whole entry): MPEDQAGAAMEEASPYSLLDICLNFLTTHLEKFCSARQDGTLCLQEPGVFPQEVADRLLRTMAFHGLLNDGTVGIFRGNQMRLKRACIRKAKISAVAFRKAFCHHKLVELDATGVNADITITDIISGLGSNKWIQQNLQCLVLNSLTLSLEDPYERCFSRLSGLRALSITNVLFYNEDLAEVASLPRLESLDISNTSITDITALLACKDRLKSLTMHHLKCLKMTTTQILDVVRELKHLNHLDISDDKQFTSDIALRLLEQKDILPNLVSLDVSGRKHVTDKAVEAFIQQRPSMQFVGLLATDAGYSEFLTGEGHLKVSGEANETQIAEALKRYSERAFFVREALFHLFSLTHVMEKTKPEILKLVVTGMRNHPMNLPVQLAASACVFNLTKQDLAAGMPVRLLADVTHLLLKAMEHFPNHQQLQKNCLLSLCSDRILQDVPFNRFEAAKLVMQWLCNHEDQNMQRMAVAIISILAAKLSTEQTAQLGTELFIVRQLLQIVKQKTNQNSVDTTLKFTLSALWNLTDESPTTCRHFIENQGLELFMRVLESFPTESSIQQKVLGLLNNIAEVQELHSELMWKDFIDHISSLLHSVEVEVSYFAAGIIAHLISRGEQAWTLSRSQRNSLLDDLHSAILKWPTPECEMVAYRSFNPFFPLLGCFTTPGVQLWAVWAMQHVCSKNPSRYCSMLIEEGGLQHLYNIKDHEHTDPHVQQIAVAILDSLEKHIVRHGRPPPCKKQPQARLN

In the case of COc1ccc2c(c1)CCCN2C(=O)CCl [KB02], the inhibition at 500 µM (Q8NF64) is reported as 46% and the “KB02_100 uM_percent_inhibition” value [1] is reported as 5%.

In the case of C=CC(=O)N(c1ccccc1)c1ccc(Br)cc1 [KB05], the inhibition at 500 µM (Q9ULT6) is reported as 36%, the inhibition at 100 µM (Q9C0D3) is reported as 48% and the “KB05_100 uM_percent_inhibition” value [2] is reported as 13%. The “KB05_100 uM_percent_inhibition” value [3] was 17%, the “KB05_100 uM_percent_inhibition” value ([4]; 100 uM) was 5% and the “KB05_500 uM_percent_inhibition” value ([4]; 500 uM) was 51%. The “KB05_100 uM_percent_inhibition” value [5] was 4%.

O=C(CCl)Nc1cc(C(F)(F)F)cc(C(F)(F)F)c1 [KBO3] was tested, and the “KB03_100 uM_percent_inhibition” value [6] was 24%, the “KB03_500 uM_percent_inhibition” value [7] was 69% and the “KB03_500 uM_percent_inhibition” value [8] was 69%. For the same compound, the “KB03_100 uM_percent_inhibition” value [9] was 61%, the “KB03_100 uM_percent_inhibition” value [10] was 15% and the “KB03_100 uM_percent_inhibition” value [5] was 31%.
